These results are taken from PMC3569154 (Clinical Psychopharmacology and Neuroscience, 2012).

The subject of assay [1] is 28-standard receptor-binding profile. Particulars: 1µM; cited from earlier work.
In assay [2] the target is T1, [^3H]glycine uptake sites (GlyT-1) (Mus musculus, UniProt P28571).
T1 sequence (P28571 1-692): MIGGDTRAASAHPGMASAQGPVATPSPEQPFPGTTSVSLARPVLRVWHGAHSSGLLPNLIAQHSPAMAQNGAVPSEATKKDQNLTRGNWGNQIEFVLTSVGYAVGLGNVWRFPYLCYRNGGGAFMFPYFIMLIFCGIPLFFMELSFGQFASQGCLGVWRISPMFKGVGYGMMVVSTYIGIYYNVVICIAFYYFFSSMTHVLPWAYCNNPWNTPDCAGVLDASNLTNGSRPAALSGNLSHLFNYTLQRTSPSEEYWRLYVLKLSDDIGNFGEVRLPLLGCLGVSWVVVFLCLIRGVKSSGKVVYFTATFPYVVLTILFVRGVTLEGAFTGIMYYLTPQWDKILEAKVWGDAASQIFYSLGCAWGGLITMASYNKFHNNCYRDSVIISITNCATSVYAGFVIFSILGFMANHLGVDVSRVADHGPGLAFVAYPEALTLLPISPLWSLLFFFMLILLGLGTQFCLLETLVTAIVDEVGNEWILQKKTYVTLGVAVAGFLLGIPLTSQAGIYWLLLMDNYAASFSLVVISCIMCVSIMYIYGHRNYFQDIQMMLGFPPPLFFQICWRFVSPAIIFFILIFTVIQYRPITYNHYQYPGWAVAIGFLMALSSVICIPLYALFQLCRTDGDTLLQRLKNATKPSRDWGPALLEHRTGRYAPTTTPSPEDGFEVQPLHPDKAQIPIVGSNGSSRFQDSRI
Briefly: Inhibition of [^3H]glycine uptake in mouse brain homogenates. It is filed as biochemical.

Where only a bound is given, the exact number is not on record here.

With `CN1CCCC[C@@H]1[C@@H](NC(=O)c1nccc(C(F)(F)F)c1Cl)c1ccsc1` [CHIBA-3007, 3-chloro-N-((S)-((R)-1-methylpiperidin-2-yl)(thiophen-3-yl)methyl)-4-(trifluoromethyl)picolinamide], in assay [1], the “inhibition in 28-standard receptor-binding profile” value is listed as less than 50%. In assay [2], this compound had an IC50 of 2.7 nM.
